Source: US6525062B2, “Method of treating pain using nalbuphine and opioid antagonists” (The Regents of the University of California, priority 2000, dated 2003)
“Also recorded” adds a separate entry of the source.

Tests used:
[1] = test system: postoperative pain after removal of third molar teeth
From the text: This is a subjective measurement of pain, in which persons participating in the study are requested to indicate a level of pain at a certain time on a 10-cm line. The patient makes an indication on the line at a value from 0 to 10 indicating the level of pain felt at that time (where 0 indicates no pain and 10 indicates the worst pain imaginable to the patient). […] Tabulations were then made indicating increase or decrease in the pain level with time, with a negative value indicating a decrease in pain experienced by the patient and a positive value, an increase in such pain.
In this clinical trial, 88 patients underwent standardized surgery by the same oral surgeon for removal of third molar (“wisdom”) teeth, including at least one bony impacted mandibular third molar. Prior to surgery, patients received intravenous diazepam, nitrous oxide, and a local anesthetic (mepivacaine without vasoconstrictor to obtain a nerve block of short duration). […]
Baseline pain intensity was defined as the last VAS pain rating before administration of the test drug or drugs. VAS pain ratings were recorded at 20-minute intervals beginning ten minutes after administration of the test drug. The duration of the experiment, measured from the time of administration of the test drug, was three hours. […]

[2] = test system: postoperative pain after removal of third molar teeth; conditions: nalbuphine alone, data as reported in previous study; cited from earlier work
[3] = test system: postoperative pain after removal of impacted wisdom teeth; conditions: cited from earlier work
[4] = test system: postoperative pain after removal of impacted third molars; conditions: co-administration of 0.4 mg naloxone, human patients, cited from earlier work

## Oc1ccc2c3c1O[C@H]1[C@@H](O)CC[C@@]4(O)[C@@H](C2)N(CC2CCC2)CC[C@]314 [nalbuphine]
[1]; women, nalbuphine 2.5 mg alone vs naloxone 0.4 mg vs combination, nalbuphine-alone data from previous study
  pain relief (VAS), initial period: slightly better pain relief in women than either naloxone at 0.4 mg or the combination
[2]
  gender x treatment interaction (ANOVA): significant gender x treatment interaction
[3]; nalbuphine 5 mg alone, men
  effect on postoperative pain: unexpectedly increased postoperative pain; also recorded: produced a marked increase in pain in men; also recorded: pain-enhancing effect; also recorded: had produced an increase in pain
[3]; nalbuphine 5 mg alone, women
  pain modulation effect versus placebo: did not produce pain modulation effects in women that were any better than those achieved by administration of a dose of placebo
[3]; women versus men
  sex difference of analgesic effects: greater and more consistent in women than in men

## CC(C)=CCN1CCC2(C)c3cc(O)ccc3CC1C2C (centres unmarked) [pentazocine]
[4]; 60 mg pentazocine
  effect of co-administered naloxone on analgesia produced by pentazocine: potentiated

## C=CCN1CC[C@]23c4c5ccc(O)c4O[C@H]2C(=O)CC[C@@]3(O)[C@H]1C5 [naloxone]
[1]; Example 1, naloxone 0.4 mg alone or nalbuphine 5 mg + naloxone 0.4 mg, intravenous
  gender differences in response (ANOVA): lack of gender differences in response

## CN1CC[C@]23c4c5ccc(O)c4O[C@H]2[C@@H](O)C=C[C@H]3[C@H]1C5 [morphine]
[4]; 8 mg morphine
  effect of co-administered naloxone on analgesia produced by morphine: attenuated
